One experiment has as its target T1, Human NPY5 receptor (Homo sapiens, UniProt Q15761).
T1 sequence (Q15761 1-445): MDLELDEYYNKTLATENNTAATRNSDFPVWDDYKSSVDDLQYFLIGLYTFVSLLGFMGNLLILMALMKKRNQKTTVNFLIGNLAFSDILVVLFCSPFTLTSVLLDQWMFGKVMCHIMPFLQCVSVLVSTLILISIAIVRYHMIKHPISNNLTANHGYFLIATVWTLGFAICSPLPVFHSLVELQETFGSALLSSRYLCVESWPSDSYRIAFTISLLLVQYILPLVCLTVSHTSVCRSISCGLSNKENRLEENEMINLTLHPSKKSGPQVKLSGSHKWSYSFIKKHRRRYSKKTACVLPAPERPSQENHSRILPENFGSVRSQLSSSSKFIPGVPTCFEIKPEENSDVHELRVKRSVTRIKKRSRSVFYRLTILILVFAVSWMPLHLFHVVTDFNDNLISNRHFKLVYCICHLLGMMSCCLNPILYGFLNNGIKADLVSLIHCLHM
The experiment in a line: Human NPY5 receptor binding assay ([125I]PYY, membrane protein). The procedure, abridged: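 Radioligand displacement: 75-100 pM [125I]PYY (porcine), membranes, drug dilution; 2 h, RT, mixing; 25 mM Tris pH 7.4 with 0.1% BSA, 0.5 mg/ml bacitracin. NSB 1 μM PYY. Filtration on PEI-treated GF/C, ice-cold buffer wash, gamma or scintillation counting.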

In the next experiment the target is T2, Y2 receptor (Homo sapiens, UniProt P49146).
T2 sequence (P49146 1-381): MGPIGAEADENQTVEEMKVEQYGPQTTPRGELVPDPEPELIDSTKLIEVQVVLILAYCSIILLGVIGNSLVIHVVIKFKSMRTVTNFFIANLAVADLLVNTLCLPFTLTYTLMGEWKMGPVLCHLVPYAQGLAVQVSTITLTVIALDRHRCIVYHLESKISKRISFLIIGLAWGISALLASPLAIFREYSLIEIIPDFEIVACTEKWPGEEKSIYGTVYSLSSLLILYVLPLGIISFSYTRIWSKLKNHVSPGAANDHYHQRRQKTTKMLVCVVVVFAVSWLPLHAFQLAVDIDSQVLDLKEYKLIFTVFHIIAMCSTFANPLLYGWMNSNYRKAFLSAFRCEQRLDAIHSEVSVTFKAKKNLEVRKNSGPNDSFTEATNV
The experiment in a line: Y2 receptor binding assay ([125I]PYY, membrane protein). The note with it: read-out: hNPY2 IC50. The procedure, abridged: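 Filtration binding with membrane protein and drug dilution, 2 h at room temperature with mixing, radioactivity counted by gamma or scintillation. Y2: 25 pM [125I]PYY in Krebs-Ringer bicarbonate pH 7.4 with 0.01% BSA, nonspecific by 1 μM NPY. Y4/PP1: 50 pM [125I]hPP in HEPES-buffered saline pH 7.4 with protease inhibitors and 0.3% BSA, nonspecific by 1 μM hPP.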

[1] abbreviates: [125I]PYY binding, read-out: hNPY5 IC50.
[2] abbreviates: [125I]PYY binding, membrane protein.

The results in this text go back to patent publication US6410792B1, “Amide derivatives and methods for using the same as selective neuropeptide Y receptor antagonists” (Bayer Corporation, priority 1997, dated 2002).

pIC50: −log10 of the molar value. Where two headings read alike, the source gives them in different places.

The term pIC50 denotes −log10 of the IC50, conventionally taken in molar units. For the compound `O=C(CN1CCCC1C(O)(c1ccccc1)c1ccccc1)Nc1ccc(C(=O)c2ccccc2)cc1` (centres unmarked) [Compound 125, N-(4-Benzoyl-phenyl)-2-[2-(hydroxy-diphenyl-methyl)-pyrrolidin-1-yl]-acetamide], the pIC50 was 6.37 at Human NPY5 receptor (setting [1]) and under 5.30 on Y2 receptor (setting [2]).
In the case of `C=C(C)C1CN(CC(=O)Nc2ccc(C(=O)c3ccccc3)cc2)C(C(=O)O)C1CC(=O)O` (centres unmarked) [Compound 120, 1-[(4-Benzoyl-phenylcarbamoyl)-methyl]-3-carboxymethyl-4-isopropenyl-pyrrolidine-2-carboxylic acid], the pIC50 at Human NPY5 receptor (hNPY5 IC50, [125I]PYY binding) was under 5.00; at Y2 receptor (setting [2]) it was under 5.30.
`NC[C@@H]1CCCN1CC(=O)Nc1ccc(C2CCCCC2)cc1` [Compound 91, 2-(2S-Aminomethyl-pyrrolidin-1-yl)-N-(4-cyclohexyl-phenyl)-acetamide]: the pIC50 was 6.37 at Human NPY5 receptor (setting [1]) and under 5.30 on Y2 receptor (setting [2]).
Turning to `N#CC(c1ccccc1)C1CCN(CC(=O)Nc2ccc(C(=O)c3ccccc3)cc2)CC1` (centres unmarked) [Compound 57, N-(4-Benzoyl-phenyl)-2-[4-(cyano-phenyl-methyl)-piperidin-1-yl]-acetamide], the pIC50 was 8.30 at Human NPY5 receptor (setting [1]) and under 5.30 on Y2 receptor (setting [2]).
As to `C=C(C)[C@@H]1CN(CC(=O)Nc2ccc(C3CCCCC3)cc2)[C@H](C(=O)O)[C@@H]1CC(=O)O` [Compound 115, (2S,3R,4R)-3-Carboxymethyl-1-[(4-cyclohexyl-phenylcarbamoyl)-methyl]-4-isopropenyl-pyrrolidine-2-carboxylic acid], the negative-log IC50 (pIC50) was under 5.00 at Human NPY5 receptor (hNPY5 IC50, [125I]PYY binding) and under 5.30 at Y2 receptor (setting [2]).
With “2-[4-(4-Chloro-phenyl)-3,6-dihydro-2H-pyridin-1-yl]-N-(4-cyclohexyl-phenyl)-acetamide [Compound 15]”, the values for the pIC50 on Human NPY5 receptor (setting [1]) and at Y2 receptor (setting [2]) were 5.57 and under 5.30, respectively.
As to `O=C(CN1CCC(N2CCCC2)CC1)Nc1ccc(C2CCCCC2)cc1` [Compound 29], the pIC50 on Human NPY5 receptor (setting [1]) is 5.36; at Y2 receptor (setting [2]), under 5.30.
With `COc1ccc(C(=O)C2CCN(CC(=O)Nc3ccc(C4CCCCC4)cc3)CC2)cc1` [Compound 116, N-(4-Cyclohexyl-phenyl)-2-[4-(4-methoxy-benzoyl)-piperidin-1-yl]-acetamide], the pIC50 on Human NPY5 receptor (setting [1]) is 5.02; on Y2 receptor (setting [2]), under 5.30.
As for `O=C(CN1CCC(O)(c2cccc(C(F)(F)F)c2)CC1)Nc1ccc(C(=O)c2ccccc2)cc1` [Compound 63, N-(4-Benzoyl-phenyl)-2-[4-hydroxy-4-(3-trifluoromethyl-phenyl)-piperidin-1-yl]-acetamide], the pIC50 on Human NPY5 receptor (setting [1]) was 6.24; on Y2 receptor (setting [2]) it was under 5.30.
For `NC(=O)C1(Nc2ccccc2)CCN(CC(=O)Nc2ccc(C(=O)c3ccccc3)cc2)CC1` [Compound 47, 1-[(4-Benzoyl-phenylcarbamoyl)-methyl]-4-phenylamino-piperidine-4-carboxylic acid amide], the values for the pIC50 on Human NPY5 receptor (setting [1]) and at Y2 receptor (setting [2]) were 5.92 and under 5.30, respectively.
The matching figures for `O=C(CN1CCC(N2CCCC2)CC1)Nc1ccc(C(=O)c2ccccc2)cc1` [Compound 45, N-(4-Benzoyl-phenyl)-2-(4-pyrrolidin-1-yl-piperidin-1-yl)-acetamide]: 5.07 and under 5.30.
The matching figures for `CN(C)CC(=O)Nc1ccc(C2CCCCC2)cc1` [Compound 2, N-(4-Cyclohexyl-phenyl)-2-dimethylamino-acetamide]: 6.11 and under 5.30.
Consider `O=C(CN1CCC(N2CCCCC2)CC1)Nc1ccc(C2CCCCC2)cc1` [Compound 24, 2-[1,4′]Bipiperidinyl-1′-yl-N-(4-cyclohexyl-phenyl)-acetamide], for which the pIC50 was 5.54 at Human NPY5 receptor (setting [1]) and under 5.30 on Y2 receptor (setting [2]).
For `O=C(CN1CCOCC1)Nc1ccc(C(=O)c2ccccc2)cc1` [Compound 6, N-(4-Benzoyl-phenyl)-2-morpholin-4-yl-acetamide], the pIC50 at Human NPY5 receptor (setting [1]) is 6.10; on Y2 receptor (setting [2]) it was under 5.30.
Regarding `O=C(CN1CCC(N2CCCCC2)CC1)Nc1ccc(C(=O)c2ccccc2)cc1` [Compound 39, N-(4-Benzoyl-phenyl)-2-[1,4′]bipiperidinyl-1′-yl-acetamide], the negative-log IC50 (pIC50) at Human NPY5 receptor (setting [1]) is 5.68; at Y2 receptor (setting [2]) it was under 5.30.
On to `O=C(CN1C[C@H](O)C[C@H]1C(=O)O)Nc1ccc(C2CCCCC2)cc1` [Compound 98, (2S,4R)-1-[(4-Cyclohexyl-phenylcarbamoyl)-methyl]-4-hydroxy-pyrrolidine-2-carboxylic acid], for which the negative-log IC50 (pIC50) was under 5.00 at Human NPY5 receptor (setting [1]) and under 5.30 at Y2 receptor (setting [2]).
With `O=C(CN(c1ccccn1)c1ccccn1)Nc1ccc(C(=O)c2ccccc2)cc1` [Compound 22, N-(4-Benzoyl-phenyl)-2-(di-pyridin-2-yl-amino)-acetamide], the pIC50 was 5.00 at Human NPY5 receptor (setting [1]) and under 5.30 on Y2 receptor (setting [2]).
With `COC[C@@H]1CCCN1CC(=O)Nc1ccc(C2CCCCC2)cc1` [Compound 93, N-(4-Cyclohexyl-phenyl)-2-(2S-methoxymethyl-pyrrolidin-1-yl)-acetamide], the figures for the pIC50 at Human NPY5 receptor (setting [1]) and at Y2 receptor (setting [2]) were 6.32 and under 5.30, respectively.
For “(2R,4R)-1-[(4-Benzoyl-phenylcarbamoyl)-methyl]-4-hydroxy-pyrrolidine-2-carboxylic acid [Compound 101]”, the values for the pIC50 at Human NPY5 receptor (setting [1]) and at Y2 receptor (setting [2]) were 5.21 and under 5.30, respectively.
Regarding `CCCC(=O)C1(c2ccccc2)CCN(CC(=O)Nc2ccc(C3CCCCC3)cc2)CC1` [Compound 75, 2-(4-Butyryl-4-phenyl-piperidin-1-yl)-N-(4-cyclohexyl-phenyl)-acetamide], the pIC50 at Human NPY5 receptor (setting [1]) is 8.05; on Y2 receptor, under 5.30.
Regarding `CC1(C)C[C@@H]2C[C@@](C)(CN2CC(=O)Nc2ccc(C(=O)c3ccccc3)cc2)C1` [Compound 105, N-(4-Benzoyl-phenyl)-2-((1S,5R)-1,3,3-trimethyl-6-aza-bicyclo[3.2.1]oct-6-yl)-acetamide], the pIC50 is 5.29 at Human NPY5 receptor (setting [1]) and under 5.30 on Y2 receptor (setting [2]).
For `Cc1ccc(C2(O)CCN(CC(=O)Nc3ccc(C(=O)c4ccccc4)cc3)CC2)cc1` [Compound 71, N-(4-Benzoyl-phenyl)-2-(4-hydroxy-4-p-tolyl-piperidin-1-yl)-acetamide], the pIC50 on Human NPY5 receptor (setting [1]) is 6.66; on Y2 receptor (setting [2]), under 5.30.
For `CCCC(=O)C1(c2ccccc2)CCN(CC(=O)Nc2ccc(C(=O)c3ccccc3)cc2)CC1` [Compound 74, N-(4-Benzoyl-phenyl)-2-(4-butyryl-4-phenyl-piperidin-1-yl)-acetamide], the pIC50 was 6.40 at Human NPY5 receptor (setting [1]) and under 5.30 at Y2 receptor (setting [2]).
As for `O=C(CN1CCN(c2ccccc2Cl)CC1)Nc1ccc(C2CCCCC2)cc1` [Compound 3, 2-[4-(2-Chloro-phenyl)-piperazin-1-yl]-N-(4-cyclohexyl-phenyl)-acetamide], the pIC50 is 6.72 on Human NPY5 receptor (setting [1]) and under 5.30 on Y2 receptor (setting [2]).
`CCNC1(C(N)=O)CCN(CC(=O)Nc2ccc(C(=O)c3ccccc3)cc2)CC1` [Compound 48, 1-[(4-Benzoyl-phenylcarbamoyl)-methyl]-4-ethylamino-piperidine-4-carboxylic acid amide]: the figures for the pIC50 on Human NPY5 receptor (setting [1]) and on Y2 receptor (setting [2]) were 7.70 and under 5.30, respectively.
For `O=C(CN1CCC2(CC1)C(=O)NCN2c1ccccc1)Nc1ccc(C(=O)c2ccccc2)cc1` [Compound 58, N-(4-Benzoyl-phenyl)-2-(4-oxo-1-phenyl-1,3,8-triaz-spiro[4.5]dec-8-yl)-acetamide], in that order: 5.70 and under 5.30.
Take `CCN(CC(=O)Nc1ccc(C(=O)c2ccccc2)cc1)Cc1ccncc1` [Compound 21, N-(4-Benzoyl-phenyl)-2-(ethyl-pyridin-4-ylmethyl-amino)-acetamide]: the values for the pIC50 on Human NPY5 receptor (setting [1]) and at Y2 receptor (setting [2]) were 6.20 and under 5.30, respectively.
For `COC(=O)[C@@H]1CCCN1CC(=O)Nc1ccc(C(=O)c2ccccc2)cc1` [Compound 107, (2S)-1-[(4-Benzoyl-phenylcarbamoyl)-methyl]-pyrrolidine-2-carboxylic acid methyl ester], in that order: 5.54 and under 5.30.
